Numbered stars: 1 amine (or outer) side, 2 acyl side, 3 side chain; on linkers, the order of the positions; unused ones are H or OH. Bridge positions count the residues as written; N and C are the ends. Square brackets hold non-standard residues; d marks the D form. Peptide text beside a SMILES is read from it. * marks the point of attachment. X42 = NCCNCC(CNCCN)C(=O)N[C@@H](CCC(=O)NCCCOCCOCCOCCCN*)C(=O)O; X12 = NCCNCC(CNCCN)C(=O)NCCCOCCOCCOCCCN*; X40 = NCCNCC(CNCCN)C(=O)NCCS(=O)(=O)CCN*; γGlu = O=C(O)[C@H](CCC(=O)[*:2])N[*:1]; mXylylene = c1cc(C[*:1])cc(C[*:2])c1; Suc = O=C(CCC(=O)[*:2])[*:1]; X18 = NCCNCC(CNCCN)C(=O)*; Nle = CCCC[C@H](N)C(=O)O
Key:
[1] = molecular target: T1, Human recombinant FAP (Homo sapiens, UniProt Q12884); experiment: FRET-based FAP protease activity assay; type: biochemical; set-up: purchased R&D systems 3715-SE; conditions: pIC50 Category (Activity), FRET substrate, 37° C.
T1 sequence (Q12884 1-760): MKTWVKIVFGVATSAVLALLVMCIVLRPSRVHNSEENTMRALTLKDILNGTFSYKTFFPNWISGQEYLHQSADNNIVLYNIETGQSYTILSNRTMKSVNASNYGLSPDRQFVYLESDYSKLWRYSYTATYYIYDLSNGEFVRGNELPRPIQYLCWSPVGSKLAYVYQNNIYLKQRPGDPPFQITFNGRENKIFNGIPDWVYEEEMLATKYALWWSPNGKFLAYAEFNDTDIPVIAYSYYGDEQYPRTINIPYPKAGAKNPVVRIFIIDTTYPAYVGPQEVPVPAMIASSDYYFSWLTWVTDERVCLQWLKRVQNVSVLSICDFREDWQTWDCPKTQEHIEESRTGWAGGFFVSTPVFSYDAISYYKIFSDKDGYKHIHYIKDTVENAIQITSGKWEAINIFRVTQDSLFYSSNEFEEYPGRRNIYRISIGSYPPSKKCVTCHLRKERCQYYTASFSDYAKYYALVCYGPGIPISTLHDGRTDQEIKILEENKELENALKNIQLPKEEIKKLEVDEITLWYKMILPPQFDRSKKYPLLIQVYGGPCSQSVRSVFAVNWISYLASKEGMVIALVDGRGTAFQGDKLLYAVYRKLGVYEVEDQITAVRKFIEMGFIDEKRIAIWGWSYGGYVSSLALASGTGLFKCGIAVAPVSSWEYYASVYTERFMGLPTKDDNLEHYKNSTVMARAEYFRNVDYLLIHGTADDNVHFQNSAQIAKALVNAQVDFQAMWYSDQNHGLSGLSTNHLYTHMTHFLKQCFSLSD

[2] = molecular target: T2, FAP-expressing human WI-38 fibroblasts (Homo sapiens, UniProt Q12884); experiment: Competitive FACS binding assay; conditions: pIC50 Category (FACS), competition with 3 nM Cy5-labeled compound, 4° C., 1 hour
T2 construct: FAP-expressing human WI-38 fibroblasts (ECACC) were cultured in EMEM; host or cells: WI-38 human fibroblasts
T2 sequence (Q12884 1-760): T1 sequence (Q12884 1-760)
Protocol: Cells were analyzed in an Attune NxT flow cytometer. […]

| SMILES | IC50 [1] | IC50 [2] |
| --- | --- | --- |
| CCCC[C@H](NC(=O)CC[C@H](NC(=O)C(CNCCN)CNCCN)C(=O)O)C(=O)N[C@H]1CSCc2cccc(c2)CSC[C@@H](C(=O)O)NC(=O)[C@H](Cc2ccccc2)NC(=O)[C@H](CCC(=O)O)NC(=O)[C@H]([C@@H](C)O)NC(=O)[C@@H]2CCCN2C(=O)[C@@H]2CCCN2C1=O [3BP-4230, N4Ac-gGlu-Nle-[Cys-(3MeBn)-Pro-Pro-Thr-Glu-Phe-Cys]-OH] ({X18-γGlu}-[Nle]CPPTEFC-OH; linker 2-8 via mXylylene) | > 1 µM | > 1 µM |
| C[C@@H](O)[C@@H]1NC(=O)[C@@H]2CCCN2C(=O)[C@@H]2CCCN2C(=O)[C@@H](NC(=O)[C@H](CCC(=O)O)NC(=O)CCC(=O)NCCCOCCOCCOCCCNC(=O)C(CNCCN)CNCCN)CSCc2cccc(c2)CSC[C@@H](C(=O)O)NC(=O)[C@H](Cc2ccccc2)NC(=O)[C@H](CCC(=O)O)NC1=O [3BP-4233, N4Ac-Ttds-Glu-[Cys-(3MeBn)-Pro-Pro-Thr-Glu-Phe-Cys]-OH] ({X12-Suc}-ECPPTEFC-OH; linker 2-8 via mXylylene) | > 1 µM | 0.1 to 0.794 µM |
| CCCC[C@H](NC(=O)CCC(=O)NCCS(=O)(=O)CCNC(=O)C(CNCCN)CNCCN)C(=O)N[C@H]1CSCc2cccc(c2)CSC[C@@H](C(=O)O)NC(=O)[C@H](Cc2ccccc2)NC(=O)[C@H](CCC(=O)O)NC(=O)[C@H]([C@@H](C)O)NC(=O)[C@@H]2CCCN2C(=O)[C@@H]2CCCN2C1=O [3BP-4243, N4Ac-Efa-Nle-[Cys-(3MeBn)-Pro-Pro-Thr-Glu-Phe-Cys]-OH] ({X40-Suc}-[Nle]CPPTEFC-OH; linker 2-8 via mXylylene) | 0.01 to 0.0794 µM | 0.01 to 0.0794 µM |
| CCCC[C@H](NC(=O)CC[C@H](NC(=O)C(CNCCN)CNCCN)C(=O)O)C(=O)N[C@H]1CSCc2cccc(c2)CSC[C@@H](C(=O)O)NC(=O)[C@H](Cc2ccccc2)NC(=O)[C@H](CCC(N)=O)NC(=O)[C@H]([C@@H](C)O)NC(=O)[C@@H]2CCCN2C(=O)[C@@H]2CCCN2C1=O [3BP-4244, N4Ac-gGlu-Nle-[Cys-(3MeBn)-Pro-Pro-Thr-Gln-Phe-Cys]-OH] | > 1 µM | > 1 µM |
| CCCC[C@H](NC(=O)CCC(=O)NCCCOCCOCCOCCCNC(=O)CC[C@H](NC(=O)C(CNCCN)CNCCN)C(=O)O)C(=O)N[C@H]1CSCc2cccc(c2)CSC[C@@H](C(=O)O)NC(=O)[C@H](Cc2ccccc2)NC(=O)[C@H](CCC(=O)O)NC(=O)[C@H]([C@@H](C)O)NC(=O)[C@@H]2CCCN2C(=O)[C@@H]2CCCN2C1=O [3BP-4245, N4Ac-gGlu-Ttds-Nle-[Cys-(3MeBn)-Pro-Pro-Thr-Gln-Phe-Cys]-OH] ({X42-Suc}-[Nle]CPPTEFC-OH; linker 2-8 via mXylylene) | 0.01 to 0.0794 µM | 0.01 to 0.0794 µM |
| CCCC[C@H](NC(=O)CCC(=O)NCCCOCCOCCOCCCNC(=O)[C@H](CCC(=O)NC[C@H](O)[C@@H](O)[C@H](O)[C@H](O)CO)NC(=O)[C@H](CCC(=O)NC[C@H](O)[C@@H](O)[C@H](O)[C@H](O)CO)NC(=O)C(CNCCN)CNCCN)C(=O)N[C@H]1CSCc2cccc(c2)CSC[C@@H](C(=O)O)NC(=O)[C@H](Cc2ccccc2)NC(=O)[C@H](CCC(=O)O)NC(=O)[C@H]([C@@H](C)O)NC(=O)[C@@H]2CCCN2C(=O)[C@@H]2CCCN2C1=O [3BP-4266, N4Ac-Glu(AGLU)-Glu(AGLU)-Ttds-Nle-[Cys-(3MeBn)-Pro-Pro-Thr-Glu-Phe-Cys]-OH] | 0.01 to 0.0794 µM | 0.01 to 0.0794 µM |
| CCCCCC(=O)N[C@H]1CSCc2cc(CSCCNC(=O)CN3CCN4CCN(CC(=O)O)CCN(CC3)CC(=O)[O][Cu][O]C(=O)C4)cc(c2)CSC[C@@H](C(=O)O)NC(=O)[C@H](Cc2ccccc2)NC(=O)[C@H](CCC(N)=O)NC(=O)[C@H]([C@@H](C)O)NC(=O)[C@@H]2CCCN2C(=O)[C@@H]2CCCN2C1 [3BP-4293, Copper(II)-Complex of Hex-[Cys(tMeBn(DOTA-AET))-Pro-Pro-Thr-Gln-Phe-Cys]-OH] | < 0.01 µM | < 0.01 µM |
| CCCCCC(=O)N[C@H]1CSCc2cc(CSCCNC(=O)CCC(=O)NCCCOCCOCCOCCCNC(=O)C(CNCCN)CNCCN)cc(c2)CSC[C@@H](C(=O)O)NC(=O)[C@H](Cc2ccccc2)NC(=O)[C@H](CCC(N)=O)NC(=O)[C@H]([C@@H](C)O)NC(=O)[C@@H]2CCCN2C(=O)[C@@H]2CCCN2C1=O [3BP-4299, Hex-[Cys-(tMeBn(N4Ac-Ttds-AET))-Pro-Pro-Thr-Gln-Phe-Cys]-OH] | < 0.01 µM | < 0.01 µM |
| CCCCCC(=O)N[C@H]1CSCc2cc(CSCCNC(=O)CCOCCOCCOCCOCCOCCOCCNC(=O)C(CNCCN)CNCCN)cc(c2)CSC[C@@H](C(=O)O)NC(=O)[C@H](Cc2ccccc2)NC(=O)[C@H](CCC(N)=O)NC(=O)[C@H]([C@@H](C)O)NC(=O)[C@@H]2CCCN2C(=O)[C@@H]2CCCN2C1=O [3BP-4300, Hex-[Cys-(tMeBn(N4Ac-PEG6-AET))-Pro-Pro-Thr-Gln-Phe-Cys]-OH] | < 0.01 µM | 0.01 to 0.0794 µM |
| CCCCCC(=O)N[C@H]1CSCc2cc(CSCCNC(=O)[C@H](CO)NC(=O)[C@H](CO)NC(=O)[C@H](CO)NC(=O)CS)cc(c2)CSC[C@@H](C(=O)O)NC(=O)[C@H](Cc2ccccc2)NC(=O)[C@H](CCC(N)=O)NC(=O)[C@H]([C@@H](C)O)NC(=O)[C@@H]2CCCN2C(=O)[C@@H]2CCCN2C1=O [3BP-4301, Hex-[Cys-(tMeBn(H-SAc-Ser-Ser-Ser-AET))-Pro-Pro-Thr-Gln-Phe-Cys]-OH] | 0.01 to 0.0794 µM | 0.01 to 0.0794 µM |
| CCCCCC(=O)N[C@H]1CSCc2cc(CSCCNC(=O)CCC(=O)NCCCOCCOCCOCCCNC(=O)[C@H](CS)NC(=O)[C@H](CC(=O)O)NC(=O)[C@@H](N)CC(=O)O)cc(c2)CSC[C@@H](C(=O)O)NC(=O)[C@H](Cc2ccccc2)NC(=O)[C@H](CCC(N)=O)NC(=O)[C@H]([C@@H](C)O)NC(=O)[C@@H]2CCCN2C(=O)[C@@H]2CCCN2C1=O [3BP-4302, Hex-[Cys-(tMeBn(H-Asp-Asp-Cys-Ttds-AET))-Pro-Pro-Thr-Gln-Phe-Cys]-OH] | 0.01 to 0.0794 µM | 0.1 to 0.794 µM |
| CCCCCC(=O)N[C@H]1CSCc2cc(CSCCNC(=O)[C@H](CS)NC(=O)[C@H](CC(=O)O)NC(=O)[C@@H](N)CC(=O)O)cc(c2)CSC[C@@H](C(=O)O)NC(=O)[C@H](Cc2ccccc2)NC(=O)[C@H](CCC(N)=O)NC(=O)[C@H]([C@@H](C)O)NC(=O)[C@@H]2CCCN2C(=O)[C@@H]2CCCN2C1=O [3BP-4303, Hex-[Cys-(tMeBn(H-Asp-Asp-Cys-AET))-Pro-Pro-Thr-Gln-Phe-Cys]-OH] | 0.01 to 0.0794 µM | 0.1 to 0.794 µM |
| CCCCCC(=O)N[C@H]1CSCc2cc(CSCCNC(=O)CCOCCOCCOCCOCCOCCOCCNC(=O)[C@H](CO)NC(=O)[C@H](CO)NC(=O)[C@H](CO)NC(=O)CS)cc(c2)CSC[C@@H](C(=O)O)NC(=O)[C@H](Cc2ccccc2)NC(=O)[C@H](CCC(N)=O)NC(=O)[C@H]([C@@H](C)O)NC(=O)[C@@H]2CCCN2C(=O)[C@@H]2CCCN2C1=O [3BP-4308, Hex-[Cys-(tMeBn(H-SAc-Ser-Ser-Ser-Ttds-AET))-Pro-Pro-Thr-Gln-Phe-Cys]-OH] | 0.01 to 0.0794 µM | 0.01 to 0.0794 µM |
| CCCCCC(=O)N[C@H]1CSCc2cc(CSCCNC(=O)CN(CCN(CCN(CC(=O)O)CC(=O)O)CC(=O)O)CC(=O)O)cc(c2)CSC[C@@H](C(=O)O)NC(=O)[C@H](Cc2ccccc2)NC(=O)[C@H](CCC(N)=O)NC(=O)[C@H]([C@@H](C)O)NC(=O)[C@@H]2CCCN2C(=O)[C@@H]2CCCN2C1=O [3BP-4309, Hex-[Cys-(tMeBn(DTPA2-AET))-Pro-Pro-Thr-Gln-Phe-Cys]-OH] | 0.01 to 0.0794 µM | 0.01 to 0.0794 µM |
